Reference: the NIST ThermoML archive (doi:10.1016/j.jct.2011.01.014)

Key:
[1] = Liquid; for mass density: Vibrating tube method; for speed of sound: sound velocity cell
[2] = xn = mol fraction of the nth substance listed; settings: 101 kPa, Liquid, x2 = 0; for mass density: Vibrating tube method; for speed of sound: sound velocity cell

O [water]
[1], 101 kPa
Settings | mass density [kg/m3] | speed of sound [m/s]
290.65 K | 998.68 | 1474.7
295.65 K | 997.65 | 1489.9
300.65 K | 996.37 | 1503.4
305.65 K | 994.86 | 1515.1
310.65 K | 993.15 | 1525
313.15 K | – | 1529.3
315.15 K | 991.24 | –
315.65 K | – | 1533.2
318.15 K | – | 1536.6
320.65 K | 989.15 | 1539.6
323.15 K | 988.04 | 1542.1

CCO [ethanol]
[1], 101 kPa
Settings | mass density [kg/m3] | speed of sound [m/s]
288.15 K | 793.828 | 1177.8
290.65 K | 791.692 | 1169.2
293.15 K | 789.553 | 1160.6
295.65 K | 787.411 | 1152
298.15 K | 785.261 | 1143.5
300.65 K | 783.106 | 1135
303.15 K | 780.944 | 1126.5
305.65 K | 778.773 | 1118.1
308.15 K | 776.593 | 1109.7
310.65 K | 774.405 | 1101.2
313.15 K | 772.204 | 1092.8
315.65 K | 769.995 | 1084.5
318.15 K | 767.77 | 1076.2
320.65 K | 765.534 | 1067.9
323.15 K | 763.296 | 1059.6

CO [methanol] + CC(=O)[O-].[NH3+]CCO
[2]
Settings | mass density [kg/m3] | speed of sound [m/s]
288.15 K | 796.694 | 1136.3
290.65 K | 793.768 | 1127.7
293.15 K | 791.418 | 1119.5
295.65 K | 789.066 | 1111.3
298.15 K | 786.71 | 1103
300.65 K | 784.349 | 1094.7
303.15 K | 781.983 | 1086.5
305.65 K | 779.612 | 1078.3
308.15 K | 777.234 | 1070.2
310.65 K | 774.851 | 1062.1
313.15 K | 772.458 | 1054
315.65 K | 770.058 | 1045.9
318.15 K | 767.647 | 1037.9
320.65 K | 765.229 | 1029.9
323.15 K | 762.809 | 1022

O [water] + CC(=O)[O-].[NH3+]CCO
[2]
Settings | mass density [kg/m3] | speed of sound [m/s]
290.65 K | 998.68 | 1474.7
295.65 K | 997.65 | 1489.9
300.65 K | 996.37 | 1503.4
305.65 K | 994.86 | 1515.1
310.65 K | 993.15 | 1525
313.15 K | – | 1529.3
315.15 K | 991.24 | –
315.65 K | – | 1533.2
318.15 K | – | 1536.6
320.65 K | 989.15 | 1539.6
323.15 K | 988.04 | 1542.1

CC(=O)[O-].[NH3+]CCO [2-hydroxyethylammonium acetate]
[1]
Settings | mass density, 101 kPa [kg/m3] | mass density, 101.33 kPa [kg/m3] | speed of sound, 101 kPa [m/s] | speed of sound, 101.33 kPa [m/s]
288.15 K | 1154.7 | – | 1817.2 | –
290.65 K | 1153.28 | – | 1810 | –
293.15 K | 1151.87 | – | 1803.2 | –
295.65 K | 1150.45 | – | 1796.8 | –
298.15 K | – | 1149.04 | 1790.7 | 1790.7
300.65 K | 1147.63 | – | 1784.8 | –
303.15 K | 1146.22 | – | 1779 | –
305.65 K | 1144.8 | – | 1773.4 | –
308.15 K | 1143.39 | – | 1767.9 | –
310.65 K | 1141.96 | – | 1762.5 | –
313.15 K | 1140.55 | – | 1757.2 | –
315.15 K | 1139.18 | – | – | –
315.65 K | 1139.18 | – | 1751.9 | –
318.15 K | 1137.82 | – | 1746.5 | –
320.65 K | 1136.45 | – | 1741.3 | –
323.15 K | 1135.08 | – | 1736 | –

CO [methanol]
[1], 101 kPa
Settings | mass density [kg/m3] | speed of sound [m/s]
288.15 K | 796.694 | 1136.3
290.65 K | 793.768 | 1127.7
293.15 K | 791.418 | 1119.5
295.65 K | 789.066 | 1111.3
298.15 K | 786.71 | 1103
300.65 K | 784.349 | 1094.7
303.15 K | 781.983 | 1086.5
305.65 K | 779.612 | 1078.3
308.15 K | 777.234 | 1070.2
310.65 K | 774.851 | 1062.1
313.15 K | 772.458 | 1054
315.65 K | 770.058 | 1045.9
318.15 K | 767.647 | 1037.9
320.65 K | 765.229 | 1029.9
323.15 K | 762.809 | 1022

CCO [ethanol] + CC(=O)[O-].[NH3+]CCO
[2]
Settings | mass density [kg/m3] | speed of sound [m/s]
288.15 K | 793.828 | 1177.8
290.65 K | 791.692 | 1169.2
293.15 K | 789.553 | 1160.6
295.65 K | 787.411 | 1152
298.15 K | 785.261 | 1143.5
300.65 K | 783.106 | 1135
303.15 K | 780.944 | 1126.5
305.65 K | 778.773 | 1118.1
308.15 K | 776.593 | 1109.7
310.65 K | 774.405 | 1101.2
313.15 K | 772.204 | 1092.8
315.65 K | 769.995 | 1084.5
318.15 K | 767.77 | 1076.2
320.65 K | 765.534 | 1067.9
323.15 K | 763.296 | 1059.6
